In US20240148744A1 (Celgene Corporation, priority 2021, published 2024):

Tested on: Onchocerca gutturosa adult male worms
Assay: Onchocerca gutturosa in vitro screening model: adult worm motility score and MTT/formazan viability
Format: cell-based
Settings: read-out: O. gutt Activity class

`Cc1cc(C)cc(S(=O)(=O)Nc2cc(F)cc3cccnc23)c1` [Compound 91, N-(6-fluoro-quinolin-8-yl)-3,5-dimethyl-benzene-sulfonamide] and `COc1cc(OC)cc(S(=O)(=O)Nc2cc(F)cc3cccnc23)c1` [Compound 128, N-(6-fluoro-quinolin-8-yl)-3,5-dimethoxy-benzenesulfon-amide] cannot be ordered by IC50: less than 200 nM for the first, less than 200 nM for the second.

`NC(=O)c1cccc(S(=O)(=O)Nc2ccc(N3CCOCC3)c3cccnc23)c1` [Compound 92, 3-(N-(5-morpholino-quin-olin-8-yl)sulfamoyl)-benzamide] and `Cn1nc(N2CCOCC2)cc1S(=O)(=O)Nc1cccc2cccnc12` [Compound 192, 1-methyl-3-morpholino-N-(quinolin-8-yl)-1H-pyrazole-5-sulfonamide] fall in the same range of IC50: 500 to 5000 nM for the first, 500 to 5000 nM for the second.

First: Cc1ccc(S(=O)(=O)Nc2cc(C)cc3cccnc23)cc1 [Compound 93, 4-methyl-N-(6-methyl-quinolin-8-yl)benzene-sulfonamide]
Second: Cc1ccc(S(=O)(=O)Nc2cccc3cc(C)cnc23)cc1 [Compound 96, 4-methyl-N-(3-methyl-quinolin-8-yl)benzene-sulfonamide]
The IC50 of the first is higher: 200 to 500 nM for the first, less than 200 nM for the second.

First: O=S(=O)(Nc1cc(O)cc2cccnc12)c1ccccn1 [Compound 94, N-(6-hydroxy-quinolin-8-yl)pyridine-2-sulfonamide]
Second: Cc1cc(NS(=O)(=O)c2ccccn2)c2ncccc2c1 [Compound 132, N-(6-methyl-quinolin-8-yl)pyridine-2-sulfonamide]
The IC50 of the first is higher: 500 to 5000 nM for the first, 200 to 500 nM for the second.

First: Cc1ccc(S(=O)(=O)Nc2ccc(N3CCC(O)(c4ccccc4)CC3)c3cccnc23)cc1 [Compound 95, N-(5-(4-hydroxy-4-phenylpiper-idin-1-yl)-quinolin-8-yl)-4-methyl-benzene-sulfonamide]
Second: Cc1ccc(S(=O)(=O)Nc2cc(F)c(F)c3cccnc23)cc1 [Compound 136, N-(5,6-difluoroquin-olin-8-yl)-4-methylben-zenesulfon-amide]
The IC50 of the first is higher: 500 to 5000 nM for the first, 200 to 500 nM for the second.

`O=S(=O)(Nc1cc(-c2ccccc2)cc2cccnc12)c1ccccn1` [Compound 97, N-(6-phenyl-quinolin-8-yl)pyridine-2-sulfonamide] and `O=S(=O)(Nc1cccc2cccnc12)c1ccc(-c2ccccc2)cn1` [Compound 244, 5-phenyl-N-(quinolin-8-yl)pyridine-2-sulfonamide] fall in the same range of IC50: 500 to 5000 nM for the first, 500 to 5000 nM for the second.

First: COc1nccnc1S(=O)(=O)Nc1c(Cl)ccc2cccnc12 [Compound 101, N-(7-chloro-quinolin-8-yl)-3-methoxypyr-azine-2-sulfon-amide]
Second: Cc1nccnc1S(=O)(=O)Nc1cccc2cccnc12 [Compound 210, 3-methyl-N-(quinolin-8-yl)pyrazine-2-sulfonamide]
The IC50 of the first is higher: 500 to 5000 nM for the first, less than 200 nM for the second.

`Cc1cc(NS(=O)(=O)c2nccn2C)c2ncccc2c1` [Compound 129, 1-methyl-N-(6-methyl-quinolin-8-yl)-1H-imidazole-2-sulfonamide] and `Cn1ccnc1S(=O)(=O)Nc1cc(F)cc2cccnc12` [Compound 134, N-(6-fluoro-quinolin-8-yl)-1-methyl-1H-imidazole-2-sulfonamide] cannot be ordered by IC50: less than 200 nM for the first, less than 200 nM for the second.

First: CCc1ccc(NS(=O)(=O)c2nccn2C)c2ncccc12 [Compound 130, N-(5-ethyl-quinolin-8-yl)-1-methyl-1H-imidazole-2-sulfonamide]
Second: Cn1ccnc1S(=O)(=O)Nc1ccc(F)c2cccnc12 [Compound 133, N-(5-fluoro-quinolin-8-yl)-1-methyl-1H-imidazole-2-sulfonamide]
The IC50 of the first is higher: 500 to 5000 nM for the first, less than 200 nM for the second. The second is the more potent here.

`O=S(=O)(Nc1cc(C2CCCCC2)cc2cccnc12)c1ccccn1` [Compound 131, N-(6-cyclo-hexylquinolin-8-yl)pyridine-2-sulfonamide] and `O=S(=O)(Nc1cc(F)cc2cccnc12)c1ccccn1` [Compound 135, N-(6-fluoro-quinolin-8-yl)-pyridine-2-sulfonamide] fall in the same range of IC50: 500 to 5000 nM for the first, 500 to 5000 nM for the second.

Compared with `Cc1ccc(NS(=O)(=O)c2ccccn2)c2ncccc12` [Compound 137, N-(5-methyl-quinolin-8-yl)pyridine-2-sulfonamide], `O=S(=O)(Nc1ccnc2cccnc12)c1ccccn1` [Compound 203, N-(1,5-naphthyridin-4-yl)pyridine-2-sulfonamide] is higher in IC50: less than 200 nM for the first, 500 to 5000 nM for the second.

First: Cc1ccc(S(=O)(=O)Nc2cc(C(F)(F)F)cc3cccnc23)cc1 [Compound 138, 4-methyl-N-(6-(trifluoro-methyl)quin-olin-8-yl)-benzene-sulfonamide]
Second: Cc1nc(C(F)(F)F)ccc1S(=O)(=O)Nc1cccc2cccnc12 [Compound 173, 2-methyl-N-(quinolin-8-yl)-6-(trifluoromethyl) pyridine-3-sulfonamide]
The IC50 of the first is lower: 200 to 500 nM for the first, 500 to 5000 nM for the second. The first is the more potent here.

`O=S(=O)(Nc1c(Cl)cc(N2CCOCC2)c2cccnc12)c1ncccc1C1CC1` [Compound 139, N-(7-chloro-5-morpholino-quinolin-8-yl)-3-cyclopropyl-pyridine-2-sulfonamide] and `COc1ccc2cccnc2c1NS(=O)(=O)c1ncccc1C1CC1` [Compound 141, 3-cyclopropyl-N-(7-methoxy-quinolin-8-yl)-pyridine-2-sulfonamide] cannot be ordered by IC50: less than 200 nM for the first, less than 200 nM for the second.

First: O=S(=O)(Nc1cccc2cccnc12)c1cccc(-c2ccccc2)n1 [Compound 161, 6-phenyl-N-(quinolin-8-yl)pyridine-2-sulfonamide]
Second: O=S(=O)(Nc1cccc2cccnc12)c1ccc2ccccc2n1 [Compound 239, N-(quinolin-8-yl)quinoline-2-sulfonamide]
The IC50 of the first is higher: 500 to 5000 nM for the first, less than 200 nM for the second. The second is the more potent here.

First: N#Cc1cccc(S(=O)(=O)Nc2cccc3cccnc23)n1 [Compound 162, 6-cyano-N-(quinolin-8-yl)pyridine-2-sulfonamide]
Second: COc1cccc(S(=O)(=O)Nc2cccc3cccnc23)n1 [Compound 224, 6-methoxy-N-(quinolin-8-yl)pyridine-2-sulfonamide]
The IC50 of the first is higher: 500 to 5000 nM for the first, 200 to 500 nM for the second. The second is the more potent here.

`O=S(=O)(Nc1cccc2cccnc12)c1cnc(-c2ccccn2)s1` [Compound 170, 2-(pyridin-2-yl)-N-(quinolin-8-yl)thiazole-5-sulfonamide] and `O=S(=O)(Nc1cccc2cccnc12)c1ncccn1` [Compound 200, N-(quinolin-8-yl)pyrimidine-2-sulfonamide] cannot be ordered by IC50: less than 200 nM for the first, less than 200 nM for the second.

`O=S(=O)(Nc1cccc2cccnc12)c1ccc(-c2cnco2)nc1` [Compound 172, 6-(oxazol-5-yl)-N-(quinolin-8-yl)pyridine-3-sulfonamide] and `O=S(=O)(Nc1cccc2cccnc12)c1ccc(O)cn1` [Compound 218, 5-hydroxy-N-(quinolin-8-yl)pyridine-2-sulfonamide] fall in the same range of IC50: 500 to 5000 nM for the first, 500 to 5000 nM for the second.

Compared with `Cc1nc(S(=O)(=O)Nc2cccc3cccnc23)c(C#N)c(C)c1Cl` [Compound 175, 5-chloro-3-cyano-4,6-dimethyl-N-(quinolin-8-yl)pyridine-2-sulfonamide], `CCn1c(S(=O)(=O)Nc2cccc3cccnc23)nc(C)c1C` [Compound 226, 1-ethyl-4,5-dimethyl-N-(quinolin-8-yl)-1H-imidazole-2-sulfonamide] is lower in IC50: 200 to 500 nM for the first, less than 200 nM for the second.

First: Cc1cccnc1S(=O)(=O)Nc1cncc2cccnc12 [Compound 194, 3-methyl-N-(1,6-naphthyridin-8-yl)pyridine-2-sulfonamide]
Second: O=S(=O)(Nc1cccc2cccnc12)c1ncccc1O [Compound 219, 3-hydroxy-N-(quinolin-8-yl)pyridine-2-sulfonamide]
The IC50 of the first is lower: 200 to 500 nM for the first, 500 to 5000 nM for the second. The first is the more potent here.

`O=S(=O)(Nc1ccnc2cccnc12)c1cc(C2CC2)ccn1` [Compound 195] and `Cc1ccnc(S(=O)(=O)Nc2cccc3cccnc23)c1` [Compound 234, 4-methyl-N-(quinolin-8-yl)pyridine-2-sulfonamide] cannot be ordered by IC50: less than 200 nM for the first, less than 200 nM for the second.

First: Cc1cnc(S(=O)(=O)Nc2cccc3cccnc23)nc1 [Compound 198, 5-methyl-N-(quinolin-8-yl)pyrimidine-2-sulfonamide]
Second: O=S(=O)(Nc1cccc2cccnc12)c1ncc[nH]1 [Compound 243, N-(quinolin-8-yl)-1H-imidazole-2-sulfonamide]
The IC50 of the first is lower: 200 to 500 nM for the first, 500 to 5000 nM for the second.

`O=S(=O)(Nc1cccc2cccnc12)c1ccncn1` [Compound 199, N-(quinolin-8-yl)pyrimidine-4-sulfonamide] and `O=S(=O)(Nc1cccc2cncnc12)c1ccccn1` [Compound 202, N-(quinazolin-8-yl)pyridine-2-sulfonamide] fall in the same range of IC50: 500 to 5000 nM for the first, 500 to 5000 nM for the second.

First: O=S(=O)(Nc1cccc2cccnc12)c1nnc2ccccn12 [Compound 201, N-(quinolin-8-yl)-[1,2,4]triazolo [4,3-a]pyridine-3-sulfonamide]
Second: CCn1cccc1S(=O)(=O)Nc1cccc2cccnc12 [Compound 227, 1-ethyl-N-(quinolin-8-yl)-1H-pyrrole-2-sulfonamide]
The IC50 of the first is higher: 500 to 5000 nM for the first, less than 200 nM for the second. The second is the more potent here.

First: O=S(=O)(Nc1cccc2cccnc12)c1c[nH]c2ncccc12 [Compound 204, N-(quinolin-8-yl)-1H-pyrrolo[2,3-b]pyridine-3-sulfonamide]
Second: O=S(=O)(Nc1cccc2cccnc12)c1nccc2ncccc12 [Compound 229, N-(quinolin-8-yl)-1,6-naphthyridine-5-sulfonamide]
The IC50 of the first is higher: 500 to 5000 nM for the first, less than 200 nM for the second.

`O=S(=O)(Nc1cccc2cccnc12)N1CCCCC1` [Compound 205, N-(quinolin-8-yl)piperidine-1-sulfonamide] and `CN1CCC(S(=O)(=O)Nc2cccc3cccnc23)CC1` [Compound 216, 1-methyl-N-(quinolin-8-yl)piperidine-4-sulfonamide] fall in the same range of IC50: 500 to 5000 nM for the first, 500 to 5000 nM for the second.

Compared with `O=S(=O)(Nc1cccc2cccnc12)c1ncccc1C1CC1` [Compound 214], `COc1cccnc1S(=O)(=O)Nc1cccc2cccnc12` [Compound 223, 3-methoxy-N-(quinolin-8-yl)pyridine-2-sulfonamide] is lower in IC50: 200 to 500 nM for the first, less than 200 nM for the second. The second is the more potent here.

`COc1ccc(S(=O)(=O)Nc2cccc3cccnc23)nc1` [Compound 235, 5-methoxy-N-(quinolin-8-yl)pyridine-2-sulfonamide] and `CCn1ccnc1S(=O)(=O)Nc1cccc2cccnc12` [Compound 240, 1-ethyl-N-(quinolin-8-yl)-1H-imidazole-2-sulfonamide] cannot be ordered by IC50: less than 200 nM for the first, less than 200 nM for the second.

`CC(C)n1ccnc1S(=O)(=O)Nc1cccc2cccnc12` [Compound 241, 1-isopropyl-N-(quinolin-8-yl)-1H-imidazole-2-sulfonamide] was tested, and the IC50 was less than 200 nM.
